Experimental data reported in ChEMBL document CHEMBL1201861, “Genomics of Drug Sensitity in Cancer screening data, Wellcome Trust Sanger Institute”.

Assays:
Assay in all cases: cells
Type in all cases: functional, cell-based, Homo sapiens
COLO-800 = conditions: Homo sapiens, COLO-800;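 further: growth inhibition of COLO-800 cells, read out with a cell viability assay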
Description: SANGER: Inhibition of human COLO-800 cell growth in a cell viability assay.

COLO-829 = conditions: Homo sapiens, COLO-829
Description: SANGER: Inhibition of human COLO-829 cell growth in a cell viability assay.

KARPAS-45 = conditions: Homo sapiens, KARPAS-45;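 further: inhibition of cell line growth, read out through a viability assay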
Description: SANGER: Inhibition of human KARPAS-45 cell growth in a cell viability assay.

DEL = conditions: Homo sapiens, DEL;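 further: growth inhibition of the human DEL cell line, read out with a cell viability assay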
Description: SANGER: Inhibition of human DEL cell growth in a cell viability assay.

SF-539 = conditions: Homo sapiens, SF-539;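 further: Read-out is a cell viability assay, with IC50 reflecting inhibition of cell growth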
Description: SANGER: Inhibition of human SF539 cell growth in a cell viability assay.

SF-126 = conditions: Homo sapiens, SF-126;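 further: growth inhibition of human SF126 cells, read out with a cell viability assay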
Description: SANGER: Inhibition of human SF126 cell growth in a cell viability assay.

HEL = conditions: Homo sapiens, HEL;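 further: growth inhibition of HEL cells, read out with a cell viability assay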
Description: SANGER: Inhibition of human HEL cell growth in a cell viability assay.

NOS-1 = conditions: Homo sapiens, NOS-1;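 further: growth inhibition of the human NOS-1 cell line, read out with a cell viability assay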
Description: SANGER: Inhibition of human NOS-1 cell growth in a cell viability assay.

PSN1 = conditions: Homo sapiens, PSN1;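 further: suppression of growth of human PSN1 cells, read out by a cell viability assay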
Description: SANGER: Inhibition of human PSN1 cell growth in a cell viability assay.

ES1 = conditions: Homo sapiens, ES1;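 further: growth inhibition of ES1 cells, read out with a cell viability assay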
Description: SANGER: Inhibition of human ES1 cell growth in a cell viability assay.

P30-OHK = conditions: Homo sapiens, P30-OHK;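 further: growth inhibition of the P30-OHK cell line, read out with a cell viability assay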
Description: SANGER: Inhibition of human P30-OHK cell growth in a cell viability assay.

SW872 = conditions: Homo sapiens, SW872;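 further: growth inhibition of SW872 cells, read out by a viability assay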
Description: SANGER: Inhibition of human SW872 cell growth in a cell viability assay.

TE-8 = conditions: Homo sapiens, TE-8;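 further: growth inhibition of TE-8 cells, measured with a cell viability readout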
Description: SANGER: Inhibition of human TE-8 cell growth in a cell viability assay.

NCI-H209 = conditions: Homo sapiens, NCI-H209;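 further: growth inhibition of human NCI-H209 cells, measured by a cell viability assay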
Description: SANGER: Inhibition of human NCI-H209 cell growth in a cell viability assay.

HL-60 = conditions: Homo sapiens, HL-60;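 further: growth inhibition of human HL-60 cells, read out with a cell viability assay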
Description: SANGER: Inhibition of human HL-60 cell growth in a cell viability assay.

RH-1 = conditions: Homo sapiens, RH-1;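 further: growth inhibition of human RH-1 cells, read out with a cell viability assay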
Description: SANGER: Inhibition of human RH-1 cell growth in a cell viability assay.

LS-513 = conditions: Homo sapiens, LS-513
Description: SANGER: Inhibition of human LS-513 cell growth in a cell viability assay.

QIMR-WIL = conditions: Homo sapiens, QIMR-WIL;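 further: growth inhibition of QIMR-WIL cells, read out with a cell viability assay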
Description: SANGER: Inhibition of human QIMR-WIL cell growth in a cell viability assay.

GT3TKB = conditions: Homo sapiens, GT3TKB;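 further: growth inhibition of the cell line, read out with a cell viability assay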
Description: SANGER: Inhibition of human GT3TKB cell growth in a cell viability assay.

TE-5 = conditions: Homo sapiens, TE-5;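 further: inhibition of cell growth, read out by a cell viability assay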
Description: SANGER: Inhibition of human TE-5 cell growth in a cell viability assay.

JAR = conditions: Homo sapiens, JAR;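 further: growth inhibition of human JAR cells determined with a cell viability assay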
Description: SANGER: Inhibition of human JAR cell growth in a cell viability assay.

CTB-1 = conditions: Homo sapiens, CTB-1
Description: SANGER: Inhibition of human CTB-1 cell growth in a cell viability assay.

EW-16 = conditions: Homo sapiens, EW-16;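 further: growth inhibition of human EW-16 cells, read out as cell viability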
Description: SANGER: Inhibition of human EW-16 cell growth in a cell viability assay.

TE-10 = conditions: Homo sapiens, TE-10;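 further: growth inhibition of TE-10 cells, measured by a cell viability assay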
Description: SANGER: Inhibition of human TE-10 cell growth in a cell viability assay.

KE-37 = conditions: Homo sapiens, KE-37;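 further: growth inhibition of KE-37 cells, read out with a cell viability assay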
Description: SANGER: Inhibition of human KE-37 cell growth in a cell viability assay.

ALL-PO = conditions: Homo sapiens, ALL-PO;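 further: growth inhibition of ALL-PO cells, read out by a cell viability assay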
Description: SANGER: Inhibition of human ALL-PO cell growth in a cell viability assay.

NCI-H720 = conditions: Homo sapiens, NCI-H720;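 further: growth inhibition of human NCI-H720 cells determined by a cell viability assay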
Description: SANGER: Inhibition of human NCI-H720 cell growth in a cell viability assay.

RPMI-8866 = conditions: Homo sapiens, RPMI-8866
Description: SANGER: Inhibition of human RPMI-8866 cell growth in a cell viability assay.

K562 = conditions: Homo sapiens, K562
Description: SANGER: Inhibition of human K-562 cell growth in a cell viability assay.

A498 = conditions: Homo sapiens, A498;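 further: growth inhibition of human A498 cells, read out with a cell viability assay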
Description: SANGER: Inhibition of human A498 cell growth in a cell viability assay.

CCRF-CEM = conditions: Homo sapiens, CCRF-CEM;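 further: inhibition of CCRF-CEM cell growth, measured by a cell viability assay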
Description: SANGER: Inhibition of human CCRF-CEM cell growth in a cell viability assay.

TGBC1TKB = conditions: Homo sapiens, TGBC1TKB;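 further: growth inhibition of TGBC1TKB cells, read out by a cell viability assay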
Description: SANGER: Inhibition of human TGBC1TKB cell growth in a cell viability assay.

A388 = conditions: Homo sapiens, A388;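 further: growth inhibition of human A388 cells, read out with a cell viability assay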
Description: SANGER: Inhibition of human A388 cell growth in a cell viability assay.

LAN-6 = conditions: Homo sapiens, LAN-6;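 further: growth inhibition of LAN-6 cells, determined with a cell viability assay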
Description: SANGER: Inhibition of human LAN-6 cell growth in a cell viability assay.

LC-2-ad = conditions: Homo sapiens, LC-2-ad;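 further: growth inhibition of human LC-2-ad cells, read out with a cell viability assay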
Description: SANGER: Inhibition of human LC-2-ad cell growth in a cell viability assay.

COLO-320-HSR = conditions: Homo sapiens, COLO-320-HSR;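 further: growth inhibition of COLO-320-HSR cells, determined with a cell viability assay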
Description: SANGER: Inhibition of human COLO-320-HSR cell growth in a cell viability assay.

ATN-1 = conditions: Homo sapiens, ATN-1;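 further: growth inhibition of human ATN-1 cells, read out with a cell viability assay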
Description: SANGER: Inhibition of human ATN-1 cell growth in a cell viability assay.

NCI-H226 = conditions: Homo sapiens, NCI-H226;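 further: cell viability read-out used to gauge growth inhibition of the cells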
Description: SANGER: Inhibition of human NCI-H226 cell growth in a cell viability assay.

KU812 cell line = conditions: Homo sapiens, KU812;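 further: growth inhibition of KU812 cells, read out with a cell viability assay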
Description: SANGER: Inhibition of human KU812 cell growth in a cell viability assay.

NH-12 = conditions: Homo sapiens, NH-12;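 further: growth inhibition of NH-12 cells, read out with a cell viability assay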
Description: SANGER: Inhibition of human NH-12 cell growth in a cell viability assay.

LB996-RCC = conditions: Homo sapiens, LB996-RCC
Description: SANGER: Inhibition of human LB996-RCC cell growth in a cell viability assay.

LU-134-A = conditions: Homo sapiens, LU-134-A
Description: SANGER: Inhibition of human LU-134-A cell growth in a cell viability assay.

LNCaP-Clone-FGC = conditions: Homo sapiens, LNCaP-Clone-FGC
Description: SANGER: Inhibition of human LNCaP-Clone-FGC cell growth in a cell viability assay.

NTERA-2-cl-D1 = conditions: Homo sapiens, NTERA-2-cl-D1;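 further: inhibition of cell growth, measured with a cell viability assay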
Description: SANGER: Inhibition of human NTERA-S-cl-D1 cell growth in a cell viability assay.

GAK = conditions: Homo sapiens, GAK;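 further: cell growth inhibition read out by a cell viability assay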
Description: SANGER: Inhibition of human GAK cell growth in a cell viability assay.

For COc1cc2c(Nc3ccc(NC(=O)c4ccccc4)cc3)ncnc2cc1OCCCN1CCOCC1, the IC50 (COLO-800) was 1.7 µM, the IC50 (COLO-829) was 2.64 µM and the IC50 (KARPAS-45) was 0.381 µM. The IC50 (DEL) was 2.75 µM, the IC50 (SF-539) was greater than 4 µM and the IC50 (SF-126) was greater than 4 µM. The IC50 (HEL) was greater than 4 µM, the IC50 (NOS-1) was greater than 4 µM and the IC50 (PSN1) was greater than 4 µM. For the same compound, the IC50 (ES1) was 1.77 µM, the IC50 (P30-OHK) was greater than 4 µM and the IC50 (SW872) was greater than 4 µM. It also gave an IC50 (TE-8) of 2.49 µM, an IC50 (NCI-H209) of 1.17 µM and an IC50 (HL-60) of 2.59 µM. It also gave an IC50 (RH-1) greater than 4 µM, an IC50 (LS-513) greater than 4 µM and an IC50 (QIMR-WIL) of 2.06 µM. For the same compound, the IC50 (GT3TKB) was greater than 4 µM, the IC50 (TE-5) was greater than 4 µM and the IC50 (JAR) was greater than 4 µM. The IC50 (CTB-1) was 1.67 µM, the IC50 (EW-16) was 3.23 µM and the IC50 (TE-10) was greater than 4 µM. The IC50 (KE-37) was 1.21 µM, the IC50 (ALL-PO) was 2.67 µM and the IC50 (NCI-H720) was 1.21 µM. For the same compound, the IC50 (RPMI-8866) was greater than 4 µM, the IC50 (K562) was greater than 4 µM and the IC50 (A498) was 2.37 µM. For the same compound, the IC50 (CCRF-CEM) was 1.87 µM, the IC50 (TGBC1TKB) was greater than 4 µM and the IC50 (A388) was 3.5 µM. The IC50 (LAN-6) was greater than 4 µM, the IC50 (LC-2-ad) was greater than 4 µM and the IC50 (COLO-320-HSR) was greater than 4 µM. The IC50 (ATN-1) was greater than 4 µM, the IC50 (NCI-H226) was greater than 4 µM and the IC50 (KU812 cell line) was greater than 4 µM. For the same compound, the IC50 (NH-12) was 3.28 µM, the IC50 (LB996-RCC) was greater than 4 µM and the IC50 (LU-134-A) was greater than 4 µM. It also gave an IC50 (LNCaP-Clone-FGC) greater than 4 µM, an IC50 (NTERA-2-cl-D1) greater than 4 µM and an IC50 (GAK) greater than 4 µM.
CC1(C)CNc2cc(NC(=O)c3cccnc3NCc3ccncc3)ccc21 [MOTESANIB] was tested, and the IC50 (COLO-800) was greater than 2 µM, the IC50 (COLO-829) was greater than 2 µM and the IC50 (KARPAS-45) was greater than 2 µM. It also gave an IC50 (DEL) greater than 2 µM, an IC50 (SF-539) greater than 2 µM and an IC50 (SF-126) greater than 2 µM. For the same compound, the IC50 (HEL) was greater than 2 µM, the IC50 (NOS-1) was greater than 2 µM and the IC50 (PSN1) was greater than 2 µM. It also gave an IC50 (ES1) greater than 2 µM, an IC50 (P30-OHK) greater than 2 µM and an IC50 (SW872) greater than 2 µM. For the same compound, the IC50 (TE-8) was greater than 2 µM, the IC50 (NCI-H209) was greater than 2 µM and the IC50 (HL-60) was greater than 2 µM. It also gave an IC50 (RH-1) greater than 2 µM, an IC50 (LS-513) greater than 2 µM and an IC50 (QIMR-WIL) greater than 2 µM. It also gave an IC50 (GT3TKB) greater than 2 µM, an IC50 (TE-5) greater than 2 µM and an IC50 (JAR) greater than 2 µM. The IC50 (CTB-1) was greater than 2 µM, the IC50 (EW-16) was greater than 2 µM and the IC50 (TE-10) was greater than 2 µM. For the same compound, the IC50 (KE-37) was greater than 2 µM, the IC50 (ALL-PO) was greater than 2 µM and the IC50 (NCI-H720) was greater than 2 µM. The IC50 (RPMI-8866) was greater than 2 µM, the IC50 (K562) was greater than 2 µM and the IC50 (A498) was greater than 2 µM. For the same compound, the IC50 (CCRF-CEM) was greater than 2 µM, the IC50 (TGBC1TKB) was greater than 2 µM and the IC50 (A388) was greater than 2 µM. For the same compound, the IC50 (LAN-6) was greater than 2 µM, the IC50 (LC-2-ad) was greater than 2 µM and the IC50 (COLO-320-HSR) was greater than 2 µM. For the same compound, the IC50 (ATN-1) was greater than 2 µM, the IC50 (NCI-H226) was greater than 2 µM and the IC50 (KU812 cell line) was greater than 2 µM. It also gave an IC50 (NH-12) greater than 2 µM, an IC50 (LB996-RCC) greater than 2 µM and an IC50 (LU-134-A) greater than 2 µM. For the same compound, the IC50 (LNCaP-Clone-FGC) was greater than 2 µM, the IC50 (NTERA-2-cl-D1) was greater than 2 µM and the IC50 (GAK) was greater than 2 µM.
